Assay results reported in US6660692B1, “Herbicidal compositions comprising picolinafen” (Aventis CropScience S.A., priority 1999, dated 2003).

Legend:
Assay type in all cases: in vivo
Conditions in all cases: 12 days after treatment
Galium aparine (GALAP) [1] = experiment: Example 5 glasshouse trial post-emergence in wheat, (I) and isoxaflutole
Protocol: (§1) A glasshouse trial was carried out post-emergence in wheat using a tank mixture comprising a phenoxypicolinamide derivative of formula I (at 1, 4 and 16 g/ha) and isoxaflutole (at 8, 16 and 32 g/ha) which was sprayed on the following weed species:
(§2) Alopecurus myosuroides (ALOMY) and Galium aparine (GALAP).

[2] = test system: Alopecurus myosuroides (ALOMY); experiment: as above
Protocol: as §1, §2

Galium aparine (GALAP) [3] = experiment: Example 4 glasshouse trial post-emergence in wheat, (I) and bromoxynil
Protocol: (§3) A glasshouse trial was carried out post-emergence in wheat using a tank mixture comprising a phenoxypicolinamide derivative of formula I (at 1, 4 and 16 g/ha) and bromoxynil (at 12.5, 50 and 200 g/ha) which was sprayed on the following weed species:
(§4) Setaria viridis (SETVI), Avena fatua (AVEFA), Echinochloa crus-galli (ECHCG) and Galium aparine (GALAP).

Avena fatua (AVEFA) [4] = experiment: as above
Protocol: as §3, §4

[5] = test system: Echinochloa crus-galli (ECHCG); experiment: as above
Protocol: as §3, §4

Setaria viridis (SETVI) [6] = experiment: as above
Protocol: as §3, §4

Galium aparine (GALAP) [7] = experiment: Example 3 glasshouse trial post-emergence in wheat, (I) and isoproturon
Protocol: (§5) A glasshouse trial was carried out post-emergence in wheat using a tank mixture comprising a phenoxypicolinamide derivative of formula I (at 1, 4 and 16 g/ha) and isoproturon (at 125, 250 and 500 g/ha) which was sprayed on the following weed species:
(§6) Alopecurus myosuroides (ALOMY), Setaria viridis (SETVI), Avena fatua (AVEFA), Echinochloa crus-galli (ECHCG) and Galium aparine (GALAP).

Avena fatua (AVEFA) [8] = experiment: as above
Protocol: as §5, §6

[9] = test system: Echinochloa crus-galli (ECHCG); experiment: as above
Protocol: as §5, §6

Setaria viridis (SETVI) [10] = experiment: as above
Protocol: as §5, §6

[11] = test system: Alopecurus myosuroides (ALOMY); experiment: as above
Protocol: as §5, §6

For O=C(Nc1ccc(F)cc1)c1cccc(Oc2cccc(C(F)(F)F)c2)n1 [(I), picolinafen], the “% Weed Control GALAP” value (Galium aparine (GALAP) [1]; 1 g ai/ha) was 10%, the “% Weed Control GALAP” value (Galium aparine (GALAP) [1]; 4 g ai/ha) was 40% and the “% Weed Control GALAP” value (Galium aparine (GALAP) [1]; 16 g ai/ha) was 90%. For the same compound, the “% Weed Control ALOMY” value ([2]; 1 g ai/ha) was 10%, the “% Weed Control ALOMY” value ([2]; 4 g ai/ha) was 10% and the “% Weed Control ALOMY” value ([2]; 16 g ai/ha) was 30%. For the same compound, the “% Weed Control GALAP” value (Galium aparine (GALAP) [3]; 1 g ai/ha) was 10%, the “% Weed Control GALAP” value (Galium aparine (GALAP) [3]; 4 g ai/ha) was 40% and the “% Weed Control GALAP” value (Galium aparine (GALAP) [3]; 16 g ai/ha) was 90%. For the same compound, the “% Weed Control AVEFA” value (Avena fatua (AVEFA) [4]; 1 g ai/ha) was 10%, the “% Weed Control AVEFA” value (Avena fatua (AVEFA) [4]; 4 g ai/ha) was 20% and the “% Weed Control AVEFA” value (Avena fatua (AVEFA) [4]; 16 g ai/ha) was 40%. The “% Weed Control ECHCG” value ([5]; 1 g ai/ha) was 10%, the “% Weed Control ECHCG” value ([5]; 4 g ai/ha) was 10% and the “% Weed Control ECHCG” value ([5]; 16 g ai/ha) was 40%. The “% Weed Control SETVI” value (Setaria viridis (SETVI) [6]; 1 g ai/ha) was 10%, the “% Weed Control SETVI” value (Setaria viridis (SETVI) [6]; 4 g ai/ha) was 30% and the “% Weed Control SETVI” value (Setaria viridis (SETVI) [6]; 16 g ai/ha) was 70%. The “% Weed Control GALAP” value (Galium aparine (GALAP) [7]; 1 g ai/ha) was 10%, the “% Weed Control GALAP” value (Galium aparine (GALAP) [7]; 4 g ai/ha) was 40% and the “% Weed Control GALAP” value (Galium aparine (GALAP) [7]; 16 g ai/ha) was 90%. For the same compound, the “% Weed Control AVEFA” value (Avena fatua (AVEFA) [8]; 1 g ai/ha) was 10%, the “% Weed Control AVEFA” value (Avena fatua (AVEFA) [8]; 4 g ai/ha) was 20% and the “% Weed Control AVEFA” value (Avena fatua (AVEFA) [8]; 16 g ai/ha) was 40%. For the same compound, the “% Weed Control ECHCG” value ([9]; 1 g ai/ha) was 10%, the “% Weed Control ECHCG” value ([9]; 4 g ai/ha) was 10% and the “% Weed Control ECHCG” value ([9]; 16 g ai/ha) was 40%. For the same compound, the “% Weed Control SETVI” value (Setaria viridis (SETVI) [10]; 1 g ai/ha) was 10%, the “% Weed Control SETVI” value (Setaria viridis (SETVI) [10]; 4 g ai/ha) was 30% and the “% Weed Control SETVI” value (Setaria viridis (SETVI) [10]; 16 g ai/ha) was 70%. For the same compound, the “% Weed Control ALOMY” value ([11]; 1 g ai/ha) was 10%, the “% Weed Control ALOMY” value ([11]; 4 g ai/ha) was 10% and the “% Weed Control ALOMY” value ([11]; 16 g ai/ha) was 30%.

CC(C)c1ccc(NC(=O)N(C)C)cc1 [Compound (II), 3-(4-isopropylphenyl)-1,1-dimethylurea] was tested, and the “% Weed Control GALAP” value (Galium aparine (GALAP) [7]; 125 g ai/ha) was 0%, the “% Weed Control GALAP” value (Galium aparine (GALAP) [7]; 250 g ai/ha) was 0% and the “% Weed Control GALAP” value (Galium aparine (GALAP) [7]; 500 g ai/ha) was 0%. For the same compound, the “% Weed Control AVEFA” value (Avena fatua (AVEFA) [8]; 125 g ai/ha) was 0%, the “% Weed Control AVEFA” value (Avena fatua (AVEFA) [8]; 250 g ai/ha) was 30% and the “% Weed Control AVEFA” value (Avena fatua (AVEFA) [8]; 500 g ai/ha) was 30%. For the same compound, the “% Weed Control ECHCG” value ([9]; 125 g ai/ha) was 10%, the “% Weed Control ECHCG” value ([9]; 250 g ai/ha) was 70% and the “% Weed Control ECHCG” value ([9]; 500 g ai/ha) was 70%. The “% Weed Control SETVI” value (Setaria viridis (SETVI) [10]; 125 g ai/ha) was 50%, the “% Weed Control SETVI” value (Setaria viridis (SETVI) [10]; 250 g ai/ha) was 70% and the “% Weed Control SETVI” value (Setaria viridis (SETVI) [10]; 500 g ai/ha) was 100%. The “% Weed Control ALOMY” value ([11]; 125 g ai/ha) was 0%, the “% Weed Control ALOMY” value ([11]; 250 g ai/ha) was 0% and the “% Weed Control ALOMY” value ([11]; 500 g ai/ha) was 20%.

In the case of N#Cc1cc(Br)c(O)c(Br)c1 [Compound (III), 3,5-dibromo-4-hydroxybenzonitrile], the “% Weed Control GALAP” value (Galium aparine (GALAP) [3]; 12.5 g ai/ha) is reported as 0%, the “% Weed Control GALAP” value (Galium aparine (GALAP) [3]; 50 g ai/ha) is reported as 80% and the “% Weed Control GALAP” value (Galium aparine (GALAP) [3]; 200 g ai/ha) is reported as 100%. For the same compound, the “% Weed Control AVEFA” value (Avena fatua (AVEFA) [4]; 12.5 g ai/ha) was 0%, the “% Weed Control AVEFA” value (Avena fatua (AVEFA) [4]; 50 g ai/ha) was 0% and the “% Weed Control AVEFA” value (Avena fatua (AVEFA) [4]; 200 g ai/ha) was 10%. For the same compound, the “% Weed Control ECHCG” value ([5]; 12.5 g ai/ha) was 0%, the “% Weed Control ECHCG” value ([5]; 50 g ai/ha) was 0% and the “% Weed Control ECHCG” value ([5]; 200 g ai/ha) was 20%. For the same compound, the “% Weed Control SETVI” value (Setaria viridis (SETVI) [6]; 12.5 g ai/ha) was 0%, the “% Weed Control SETVI” value (Setaria viridis (SETVI) [6]; 50 g ai/ha) was 20% and the “% Weed Control SETVI” value (Setaria viridis (SETVI) [6]; 200 g ai/ha) was 20%.

With CS(=O)(=O)c1cc(C(F)(F)F)ccc1C(=O)c1cnoc1C1CC1 [Compound (IV), 5-cyclopropyl-4-(2-methylsulphonyl-4-trifluoromethyl)-benzoylisoxazole] the “% Weed Control GALAP” value (Galium aparine (GALAP) [1]; 8 g ai/ha) was 60%, the “% Weed Control GALAP” value (Galium aparine (GALAP) [1]; 16 g ai/ha) was 60% and the “% Weed Control GALAP” value (Galium aparine (GALAP) [1]; 32 g ai/ha) was 80%. The “% Weed Control ALOMY” value ([2]; 8 g ai/ha) was 10%, the “% Weed Control ALOMY” value ([2]; 16 g ai/ha) was 20% and the “% Weed Control ALOMY” value ([2]; 32 g ai/ha) was 40%.
